pIC50: −log10 of the molar value. Structures can show the parent of a compound that is named as a salt.
target: Human Factor D (Homo sapiens (Human), UniProt P00746); assay: Human Factor D Assay; assay type: biochemical; conditions: not given
Procedure, shortened: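 IC50 values derive from nonlinear regression of Factor D reaction rates against compound concentration. The enzyme, purified from human serum, is used at 80 nM final with a 5 min room-temperature compound preincubation in 50 mM Tris, 1M NaCl, pH 7.5, before 100 μM Z-L-Lys-SBzl plus 100 μM DTNB are added.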

Chain of Human Factor D (P00746 26-253): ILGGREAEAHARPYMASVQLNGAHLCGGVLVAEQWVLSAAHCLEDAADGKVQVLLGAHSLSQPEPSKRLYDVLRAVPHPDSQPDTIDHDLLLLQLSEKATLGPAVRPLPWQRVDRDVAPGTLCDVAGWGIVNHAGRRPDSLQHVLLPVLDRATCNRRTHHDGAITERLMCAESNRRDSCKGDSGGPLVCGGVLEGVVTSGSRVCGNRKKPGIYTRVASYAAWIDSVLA

Row | SMILES | pIC50
1 | Cc1ncc(-c2ccc3c(c2)c([C@H](C)O)nn3CC(=O)N2C[C@H](F)C[C@H]2C(=O)Nc2cccc(Br)n2)cn1 [Compound 425, (2S,4R)—N-(6-Bromopyridin-2-yl)-4-fluoro-1-(2-(3-((S)-1-hydroxyethyl)-5-(2-methylpyrimidin-5-yl)-1H-indazol-1-yl)acetyl)pyrrolidine-2-carboxamide] | 5.00 to 6.00
2 | Cc1ncc(-c2ccc3c(c2)c([C@@H](C)O)nn3CC(=O)N2C[C@H](F)C[C@H]2C(=O)Nc2cccc(Br)n2)cn1 [Compound 426, (2S,4R)—N-(6-Bromopyridin-2-yl)-4-fluoro-1-(2-(3-((R)-1-hydroxyethyl)-5-(2-methylpyrimidin-5-yl)-1H-indazol-1-yl)acetyl)pyrrolidine-2-carboxamide] | 5.00 to 6.00

same assay, conditions: Table 3; Human Factor D 80 nM, substrate Z-L-Lys-SBzl; read-out: IC50 (Stars)

Row | SMILES | pIC50
3 | CC(=O)c1nn(CC(=O)N2C[C@H](F)C[C@H]2C(=O)Nc2ccn(CC(F)F)n2)c2ccc(-c3cnc(C)nc3)cc12 [Compound 401, (2S,4R)-1-(2-(3-Acetyl-5-(2-methylpyrimidin-5-yl)-1H-indazol-1-yl)acetyl)-N-(1-(2,2-difluoroethyl)-1H-pyrazol-3-yl)-4-fluoropyrrolidine-2-carboxamide] | > 6.00
4 | CC(=O)c1nn(CC(=O)N2C[C@H](F)C[C@H]2C(=O)Nc2ccc(C)c(Br)n2)c2ccc(-c3cnc(C)nc3)cc12 [Compound 402, (2S,4R)-1-(2-(3-Acetyl-5-(2-methylpyrimidin-5-yl)-1H-indazol-1-yl)acetyl)-N-(6-bromo-5-methylpyridin-2-yl)-4-fluoropyrrolidine-2-carboxamide] | > 6.00
5 | CC(=O)c1nn(CC(=O)N2C[C@H](F)C[C@H]2C(=O)Nc2cccc(Br)n2)c2ccc(-c3cnc(CNC(=O)OC(C)(C)C)nc3)cc12 [Compound 403, tert-butyl ((5-(3-Acetyl-1-(2-((2S,4R)-2-((6-bromopyridin-2-yl)carbamoyl)-4-fluoropyrrolidin-1-yl)-2-oxoethyl)-1H-indazol-5-yl)pyrimidin-2-yl)methyl)carbamate] | > 6.00
6 | CC(=O)c1nn(CC(=O)N2C[C@H](F)C[C@H]2C(=O)Nc2cccc(Br)n2)c2ccc(-c3cnc(CN)nc3)cc12 [Compound 404, (2S,4R)-1-(2-(3-Acetyl-5-(2-(aminomethyl)pyrimidin-5-yl)-1H-indazol-1-yl)acetyl)-N-(6-bromopyridin-2-yl)-4-fluoropyrrolidine-2-carboxamide hydrochloride] | > 6.00
7 | CC(=O)c1nn(CC(=O)N2C[C@H](F)C[C@H]2C(=O)Nc2nc(Br)ccc2C)c2ccc(-c3cnc(C)nc3)cc12 [Compound 405, (2S,4R)-1-(2-(3-Acetyl-5-(2-methylpyrimidin-5-yl)-1H-indazol-1-yl)acetyl)-N-(6-bromo-3-methylpyridin-2-yl)-4-fluoropyrrolidine-2-carboxamide] | > 6.00
8 | CC(=O)NCc1ncc(-c2ccc3c(c2)c(C(C)=O)nn3CC(=O)N2C[C@H](F)C[C@H]2C(=O)Nc2cccc(Br)n2)cn1 [Compound 406, (2S,4R)-1-(2-(5-(2-(Acetamidomethyl)pyrimidin-5-yl)-3-acetyl-1H-indazol-1-yl)acetyl)-N-(6-bromopyridin-2-yl)-4-fluoropyrrolidine-2-carboxamide] | > 6.00
9 | CC(=O)c1nn(CC(=O)N2C[C@H](F)C[C@H]2C(=O)Nc2ccc(F)cn2)c2ccc(-c3cnc(C)nc3)cc12 [Compound 407, (2S,4R)-1-(2-(3-Acetyl-5-(2-methylpyrimidin-5-yl)-1H-indazol-1-yl)acetyl)-4-fluoro-N-(5-fluoropyridin-2-yl)pyrrolidine-2-carboxamide] | > 6.00
10 | CC(=O)c1nn(CC(=O)N2C[C@H](F)C[C@H]2C(=O)Nc2ncc(F)cc2Br)c2ccc(-c3cnc(C)nc3)cc12 [Compound 408, (2S,4R)-1-(2-(3-Acetyl-5-(2-methylpyrimidin-5-yl)-1H-indazol-1-yl)acetyl)-N-(3-bromo-5-fluoropyridin-2-yl)-4-fluoropyrrolidine-2-carboxamide] | > 6.00
11 | Cc1ncc(-c2ccc3c(c2)c([C@H](C)O)nn3CC(=O)N2[C@@H]3C[C@@H]3C[C@H]2C(=O)Nc2cccc(Br)n2)cn1 [Compound 409, (1R,3S,5R)—N-(6-Bromopyridin-2-yl)-2-(2-(3-((S)-1-hydroxyethyl)-5-(2-methylpyrimidin-5-yl)-1H-indazol-1-yl)acetyl)-2-azabicyclo[3.1.0]hexane-3-carboxamide] | > 6.00
12 | CC(=O)c1nn(CC(=O)N2C[C@@](F)(CF)C[C@H]2C(=O)Nc2cccc(Br)n2)c2ccc(-c3cnc(C)nc3)cc12 [Compound 415, (2S,4R)-1-(2-(3-Acetyl-5-(2-methylpyrimidin-5-yl)-1H-indazol-1-yl)acetyl)-N-(6-bromopyridin-2-yl)-4-fluoro-4-(fluoromethyl)pyrrolidine-2-carboxamide] | > 6.00
13 | COC[C@@]12C[C@@H](C(=O)Nc3cccc(Br)n3)N(C(=O)Cn3nc(C(C)=O)c4cc(-c5cnc(C)nc5)ccc43)[C@@H]1C2 [Compound 416, (1R,3S,5S)-2-(2-(3-Acetyl-5-(2-methylpyrimidin-5-yl)-1H-indazol-1-yl)acetyl)-N-(6-bromopyridin-2-yl)-5-(methoxymethyl)-2-azabicyclo[3.1.0]hexane-3-carboxamide] | > 6.00
14 | COC[C@@]12C[C@@H]1N(C(=O)Cn1nc(C(C)=O)c3cc(-c4cnc(C)nc4)ccc31)[C@H](C(=O)Nc1cccc(Br)n1)C2 [Compound 417, (1S,3S,5R)-2-(2-(3-Acetyl-5-(2-methylpyrimidin-5-yl)-1H-indazol-1-yl)acetyl)-N-(6-bromopyridin-2-yl)-5-(methoxymethyl)-2-azabicyclo[3.1.0]hexane-3-carboxamide] | > 6.00
15 | CC(=O)c1nn(CC(=O)N2C[C@](C)(F)C[C@H]2C(=O)Nc2cccc(Br)n2)c2ccc(-c3cnc(C)nc3)cc12 [Compound 418, (2S,4R)-1-(2-(3-Acetyl-5-(2-methylpyrimidin-5-yl)-1H-indazol-1-yl)acetyl)-N-(6-bromopyridin-2-yl)-4-fluoro-4-methylpyrrolidine-2-carboxamide] | > 6.00
16 | COC[C@@]1(F)C[C@@H](C(=O)Nc2cccc(Br)n2)N(C(=O)Cn2nc(C(C)=O)c3cc(-c4cnc(C)nc4)ccc32)C1 [Compound 419, (2S,4R)-1-(2-(3-Acetyl-5-(2-methylpyrimidin-5-yl)-1H-indazol-1-yl)acetyl)-N-(6-bromopyridin-2-yl)-4-fluoro-4-(methoxymethyl)pyrrolidine-2-carboxamide] | > 6.00
17 | CC(=O)c1nn(CC(=O)N2C[C@H](F)C[C@H]2C(=O)Nc2nn(CC(F)(F)F)cc2Br)c2ccc(-c3cnc(C)nc3)cc12 [Compound 420, (2S,4R)-1-(2-(3-Acetyl-5-(2-methylpyrimidin-5-yl)-1H-indazol-1-yl)acetyl)-N-(4-bromo-1-(2,2,2-trifluoroethyl)-1H-pyrazol-3-yl)-4-fluoropyrrolidine-2-carboxamide] | > 6.00
18 | CNC(=O)c1nn(CC(=O)N2C[C@H](F)C[C@H]2C(=O)Nc2cccc(Br)n2)c2ccc(-c3cnc(C)nc3)cc12 [Compound 424, 1-(2-((2S,4R)-2-((6-Bromopyridin-2-yl)carbamoyl)-4-fluoropyrrolidin-1-yl)-2-oxoethyl)-N-methyl-5-(2-methylpyrimidin-5-yl)-1H-indazole-3-carboxamide] | > 6.00
19 | CC(=O)c1nn(CC(=O)N2C[C@H](F)[C@@H](N)[C@H]2C(=O)Nc2cccc(Br)n2)c2ccc(-c3cnc(C)nc3)cc12 [Compound 427, (2S,3S,4S)-1-(2-(3-Acetyl-5-(2-methylpyrimidin-5-yl)-1H-indazol-1-yl)acetyl)-3-amino-N-(6-bromopyridin-2-yl)-4-fluoropyrrolidine-2-carboxamide] | > 6.00
20 | CC(=O)c1nn(CC(=O)N2C[C@@H](N)[C@H](F)[C@H]2C(=O)Nc2cccc(Br)n2)c2ccc(-c3cnc(C)nc3)cc12 [Compound 428, (2R,3S,4R)-1-(2-(3-Acetyl-5-(2-methylpyrimidin-5-yl)-1H-indazol-1-yl)acetyl)-4-amino-N-(6-bromopyridin-2-yl)-3-fluoropyrrolidine-2-carboxamide] | < 5.00
21 | CC(=O)c1nn(CC(=O)N2C[C@H](F)C[C@H]2C(=O)Nc2cc(C)n(CC(F)(F)F)n2)c2ccc(-c3cnc(C)nc3)cc12 [Compound 429, (2S,4R)-1-(2-(3-Acetyl-5-(2-methylpyrimidin-5-yl)-1H-indazol-1-yl)acetyl)-N-(5-methyl-1-(2,2,2-trifluoroethyl)-1H-pyrazol-3-yl)-4-fluoropyrrolidine-2-carboxamide] | > 6.00
22 | CC(=O)c1nn(CC(=O)N2C[C@H](F)C[C@H]2C(=O)Nc2nn(CC(F)(F)F)cc2Cl)c2ccc(-c3cnc(C)nc3)cc12 [Compound 430, (2S,4R)-1-(2-(3-Acetyl-5-(2-methylpyrimidin-5-yl)-1H-indazol-1-yl)acetyl)-N-(4-chloro-1-(2,2,2-trifluoroethyl)-1H-pyrazol-3-yl)-4-fluoropyrrolidine-2-carboxamide] | > 6.00
23 | COc1cc(Br)nc(NC(=O)[C@@H]2C[C@@H](F)CN2C(=O)Cn2nc(C(C)=O)c3cc(-c4cnc(OC)nc4)ccc32)c1 [Compound 431, (2S,4R)-1-(2-(3-Acetyl-5-(2-methoxypyrimidin-5-yl)-1H-indazol-1-yl)acetyl)-N-(6-bromo-4-methoxypyridin-2-yl)-4-fluoropyrrolidine-2-carboxamide] | > 6.00
24 | COc1cc(Br)nc(NC(=O)[C@@H]2C[C@@H](F)CN2C(=O)Cn2nc(C(C)=O)c3cc(-c4cnc(N)nc4)ccc32)c1 [Compound 432, (2S,4R)-1-(2-(3-Acetyl-5-(2-aminopyrimidin-5-yl)-1H-indazol-1-yl)acetyl)-N-(6-bromo-4-methoxypyridin-2-yl)-4-fluoropyrrolidine-2-carboxamide] | > 6.00
25 | COc1cc(Br)nc(NC(=O)[C@@H]2C[C@H]3C[C@H]3N2C(=O)Cn2nc(C(C)=O)c3cc(-c4cnc(OC)nc4)ccc32)c1 [Compound 433, (1R,3S,5R)-2-(2-(3-Acetyl-5-(2-methoxypyrimidin-5-yl)-1H-indazol-1-yl)acetyl)-N-(6-bromo-4-methoxypyridin-2-yl)-2-azabicyclo[3.1.0]hexane-3-carboxamide] | > 6.00
